# In US11419865B2, “Method for inducing a sustained immune response” (Cytocom Inc., priority 2016, dated 2022):
# Key:
# HIV = assay: single blind 90 day randomized bridging clinical trial in Nigeria, asymptomatic HIV+ adults on ART; format: in vivo, human
# Experimental: The differences in CD4 count, CD4%, hemoglobin, viral load, interferon alpha, and standard chemistry panel were measured between treated versus non-treated groups four times throughout the study. […] When used alone, it appears to slow and/or stop the progression of the disease.
# [1] = test system: patients with hematologic malignancies; assay: randomized controlled trial of quality of life (EORTC QLQ-C30), 89 hematologic cancer patients; format: in vivo, human
# Experimental: 89 patients Hematologic Cancer Patients This was a randomized controlled trial assessing quality of life in patients with hematologic malignancies from a single institute in Hamedan. […] Quality of life was measured using the EORTC QLQ-C30 in four points in time (at admission, 1, 3 and 5 months follow-up).
# Data were analyzed to compare quality of life in two groups. In total, 89 patients were studied (45 in treatment group and 44 in placebo group). There were no significant differences between two groups either in demographic and clinical characteristics or in baseline quality of life scores.
# This study aimed to investigate its effect on hematologic cancer patients. This was a randomized controlled trial assessing quality of life in patients with hematologic malignancies from a single institute. […] Quality of life was measured using the EORTC QLQ-C30 in four points in time (at admission, 1, 3 and 5 months follow-up). Data were analyzed to compare quality of life in two groups. Totally, 89 patients were studied (45 in treatment group and 44 in placebo group). There were no significant differences between two groups either in demographic and clinical characteristics or in baseline quality of life scores. However, at 1 month, 3 and 5-month follow-up assessments significant differences were observed. […].
# cancer patients = assay: cancer case reports; format: in vivo, human
# Experimental: person diagnosed with stage 3-stomach cancer prognosis 6 months to live on Mar. […] 28, 2007. In addition to Immediate release naltrexone patients received chemotherapy and kidney stents inserted. […].
# Person diagnosed with stage 4 pleural mesothelioma in December of 2008 and patients after consult with two other doctors it was determined due to the state of the diseases and other health issues to watch the tumors and not do chemotherapy. Prognosis was 6 to 12 months. Patient started 4.5 mg nightly and received on other treatment but did change diet. […] […].
# A person diagnosed with stage 4-colon cancer, 2007 which had spread to their lungs and liver, they removed 40% of their colon and began a round of chemotherapy and three surgeries removed 40% of their colon, half is their right lung and 75% of their liver. During the next 18 months received 47 weeks of chemotherapy (a combination of 4 chemo drugs at once). […].
# person was diagnosed with stage 3 prostate cancer which they were originally treated for 5 years before began 3 rounds of Docetaxel (Taxotere®). They were prescribed 4.5 mg of […]
# Hepatitis C = Hepatitis C case reports; format: in vivo, human
# Hepatitis B = Hepatitis B case report; format: in vivo, human; details: 1 mg
# [2] = test system: diabetic neuropathy patient; assay: diabetic neuropathy case report; format: in vivo, human
# Text: person, diagnosed with diabetic neuropathy for the last six years was prescribed one or two tablets every four to six hours as needed for pain. Patient takes between 4 to 8 tablets a day.
# MS patients = assay: multiple sclerosis case reports; format: in vivo, human
# [3] = test system: psoriatic arthritis patient; assay: psoriatic arthritis case report; format: in vivo, human
# systemic lupus patients = assay: systemic lupus case reports; format: in vivo, human
# Text: […]. […] […].
# Psoriasis mostly resolved.
# AIDS = details: 3.0 mg daily at bedtime, 12 weeks, cited from earlier work
# children with autism = assay: autism case reports
smiles,measurement,setting,value
"O=C1CC[C@@]2(O)[C@H]3Cc4ccc(O)c5c4[C@@]2(CCN3CC2CC2)[C@H]1O5 [Immediate release naltrexone, naltrexone]",increase in CD4 count,"HIV; about 4.5 mg single oral dose with ART, at 3 months",44%
same,BMI,HIV; about 4.5 mg with ART,increase in BMI
same,opportunistic infections,HIV; about 4.5 mg with ART,reduction in opportunistic infections
same,improvement in CD4 count vs control group,"HIV; about 4.5 mg with ART, at 3 months, control 54 subjects",significantly greater than the control group
same,Improvement in CD4%,"HIV; about 4.5 mg with ART, throughout treatment",the increases were statistically significant
same,social functioning (EORTC QLQ-C30) vs placebo,"[1]; 3 mg capsules daily plus routine treatment, one month follow-up, p<0.05",better condition in the treatment group
same,blood laboratory tests,[1]; 3 mg daily,no changes in the blood laboratory tests
same,"social functioning, role functioning, nausea and vomiting and appetite loss vs placebo","[1]; 3 mg daily, 3-month follow-up, all p-values<0.05",better in the treatment group
same,"physical, social, role functioning, global quality of life, nausea and vomiting and appetite loss vs placebo","[1]; 3 mg daily, 5-month follow-up",significantly better
same,"tolerance of chemotherapy, person, stage 4-colon cancer",cancer patients; 4.5 mg nightly from June of 2007 with chemotherapy,able to complete the entire protocol without any major side effects at all
same,"tolerance of chemotherapy, person, stage 3 prostate cancer",cancer patients; 4.5 mg nightly with 3 rounds of Docetaxel,able to withstand the chemotherapy and their blood work stayed stable throughout the protocol
same,"CAT scans, person, stage 4 pleural mesothelioma","cancer patients; 4.5 mg nightly, no chemotherapy, February 2009 and 2010",no measurable growth of tumors
same,"disease course, person, stage 4-colon cancer","cancer patients; 4.5 mg nightly, scans every six months",continued cancer free until June of 2015
same,"CT scan, person, stage 3-stomach cancer","cancer patients; 4.5 mg with chemotherapy, September 2007",tumors shrunk in half
same,"disease status, person, stage 3-stomach cancer","cancer patients; 4.5 mg, December of 2007",in remission and stable
same,"CT scan, person, stage 3-stomach cancer","cancer patients; 4.5 mg, March 2008",tumors had shrunk in half
same,"scan, person, stage 3-stomach cancer","cancer patients; 4.5 mg, March of 2009",tumors were stable
same,"Viral load, person, Hepatitis C & stage 4 cirrhosis","Hepatitis C; 4.5 mg, by August of 2011",8.3 million
same,"HCV viral load, person",Hepatitis C; May 2010,11.400
same,"ultrasound and liver enzymes, person, Hepatitis C",Hepatitis C; all other medication stopped,"No fatty liver, Liver enzymes dropped to normal"
same,"HCV viral load, person","Hepatitis C; started February of 2009, May 2009, from over a million in January 2009","49,000"
same,"additional benefits, child, Hepatitis B",Hepatitis B,resolutions of eczema
same,"serology, child, Hepatitis B",Hepatitis B; within 7 months,Sero-conversion to negative antigens and positive antibodies
same,"ALT/AST, child, Hepatitis B",Hepatitis B; within one month,decreased to normal
same,"viral load, child, Hepatitis B","Hepatitis B; within one month, from 59.2 million","53,000"
same,"additional benefits, diabetic neuropathy",[2]; 4.5 mg,resolutions of RLS
same,"pain medication use, diabetic neuropathy","[2]; 4.5 mg from March of 2015, within 3 days",cut down the number of pills in half
same,"pain medication use, diabetic neuropathy","[2]; 4.5 mg, within 8 weeks",stopped all pain medication
same,"first three months, person, Secondary Progressive MS",MS patients; 1.5 mg at bedtime increasing to 3 mg from July of 2005,no real improvement in the first three months accept no flair of MS
same,"disease course, person, relapsing remitting MS","MS patients; 1.5 mg increasing to 4.5 mg nightly with progesterone, estriol, Cortef",back at work for 5 years without an exacerbation
same,"MRI, person, secondary-progressive multiple sclerosis (SPMS)","MS patients; 1.5 mg then 3 mg from July of 2009, January of 2011",MRI showed reduced plaque and lesion size
same,"disease course, person, fast deteriorating M.S.","MS patients; 1.5 mg, 3 mg, then 4.5 mg for seven months",the disease has stabilized and the progressive deterioration has stopped
same,"disease course, person, M.S. of 35 years","MS patients; 3 mg for 30 days then 4.5 mg at bedtime, over three months",regained their ability to see and walk and their cognitive ability improved as well
same,"mobility, person four, Relapsing Remitting MS, wheelchair bound",MS patients; 3 mg nightly from July 2004,walking again with a cane for assistance within 10 days
same,"relapses, person two, Relapsing Remitting MS",MS patients; 4.5 mg at bedtime since 2002,has not had a one relapse
same,"side effects, person four, Relapsing Remitting MS",MS patients; 4.5 mg nightly from August of 2004,minimal side effects some insomnia
same,"relapses, person four, Relapsing Remitting MS","MS patients; 4.5 mg nightly, last update 2010",no relapses
same,"MRI, person two, Relapsing Remitting MS","MS patients; 4.5 mg, over the last 8 years",no progression of the disease
same,"mobility, person, Secondary Progressive MS","MS patients; months 3 to 6, later 4.5 mg",upgraded from wheelchair to cane
same,"medication use, person, psoriatic arthritis","[3]; 4.5 mg at bedtime, within 10 days",able to discontinue all paid medications as well as the Humira
same,"disease course, person, psoriatic arthritis","[3]; 4.5 mg, last six months",the disease has stabilized and the progressive deterioration has stopped
same,"MRSA recurrence, person, systemic lupus",systemic lupus patients; 1.5 mg,No recurrence of MRSA in 8 years
same,"tolerability, person, systemic lupus",systemic lupus patients; 1.5 mg starting dose,unable to take it due to insomnia and pruritis
same,"mobility, person, Systemic Lupus","systemic lupus patients; 3 mg from March 2013, within three weeks",improved mobility
same,"skin, person, Systemic Lupus","systemic lupus patients; 3 mg increasing to 4.5 mg, within 4 months",skin cleared almost 100%
same,"hospital stays, person, Systemic Lupus",systemic lupus patients; 4.5 mg,no hospital stays since March of 2013
same,"disease status, person, systemic lupus","systemic lupus patients; liquid form, 0.1 mg increased weekly to 1.5 mg, with supplements, diet","Lupus, in remission"
same,lymphocyte mitogen responses,AIDS,declined on placebo and not on Immediate release naltrexone
same,pathologically elevated levels of acid-labile alpha interferon,AIDS,declined significantly
same,incidence of opportunistic infections (patients),AIDS; placebo 5 out of 16 (31%),0 of the 22
same,"initial effect, child, Autism",children with autism; 3 mg,hyperactivity increased for the first three weeks
same,"side effect, child, Autism",children with autism; 5 ml at bedtime,a little constipation
